Reference: PubChem BioAssay (NCI)
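Cells were grown in 96-well plates and exposed to each compound for 48 hours at five concentrations; endpoints were interpolated linearly between bracketing concentrations, or set to the highest concentration if not reached. TGI: concentration producing complete growth inhibition.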

Assays:
Assay in all cases: DTP human tumour cell line panel, 48 h
OVCAR-8 ovarian = tested on: OVCAR-8 ovarian
OVCAR-5 ovarian = tested on: OVCAR-5 ovarian
T-47D breast = tested on: T-47D breast
RXF 393 renal = tested on: RXF 393 renal
MALME-3M melanoma = tested on: MALME-3M melanoma
HT29 colon = tested on: HT29 colon
SK-OV-3 ovarian = tested on: SK-OV-3 ovarian
COLO 205 colon = tested on: COLO 205 colon
UACC-257 melanoma = tested on: UACC-257 melanoma
SF-295 CNS = tested on: SF-295 CNS

Structure (SMILES)	TGI (OVCAR-8 ovarian) [µM]	TGI (OVCAR-5 ovarian) [µM]	TGI (T-47D breast) [µM]	TGI (RXF 393 renal) [µM]	TGI (MALME-3M melanoma) [µM]	TGI (HT29 colon) [µM]	TGI (SK-OV-3 ovarian) [µM]	TGI (COLO 205 colon) [µM]	TGI (UACC-257 melanoma) [µM]	TGI (SF-295 CNS) [µM]
Cc1cc(/N=C/c2ccc(C#N)cc2)n(-c2ccccc2)n1	> 100	> 100	> 100	> 100	> 100	> 100	> 100	> 100	> 100	> 100
CC(C)(C)C(=O)C(Cc1ccccc1)C(=O)C(C)(C)C	> 100	> 100	> 100	> 100	> 100	> 100	> 100	> 100	> 100	> 100
OCC(O)C(O)C(O)/C=N/Nc1nc(O)c(/C=C2\C=Nc3ccccc32)[nH]1 (stereo not given)	> 100	> 100	> 100	> 100	> 100	> 100	> 100	> 100	> 100	> 100
O=C(CNCc1ccccc1)Oc1c(Cl)c(Cl)c(Cl)c(Cl)c1Cl	48.8	> 100	67.9	> 100	65.3	> 100	> 100	85.9	54.8	92.9
NS(=O)(=O)c1ccc(NC(NC(=O)C(C(F)(F)F)C(F)(F)F)(C(F)(F)F)C(F)(F)F)cc1	> 100	> 100	> 100	> 100	> 100	> 100	> 100	> 100	> 100	> 100
COC(=O)C1OC(O[C@H]2CC[C@]3(C)[C@H]4CC=C5[C@@H]6CC(C)(C)CC[C@]6(C(=O)OC6OCC(O)C(O)C6OC6OC(C)C(OC7OCC(OC8OCC(O)C(O)C8O)C(O)C7O)C(O)C6O)[C@H](O)C[C@@]5(C)[C@]4(C)CC[C@H]3C2(C)C)C(O)C(O)C1O (stereo not given in full)	13.2	8.01	13.2	25.8	14.5	8.9	28.1	3.09	13.1	8.66
c1ccc(-c2cnc(-c3ccc(-c4ncc(-c5ccccc5)o4)cc3)o2)cc1	> 100	> 100	> 100	> 100	> 100	> 100	> 100	> 100	> 100	> 100
COc1cc(C=C2C(=O)NC(=S)NC2=O)cc(OC)c1OC	> 100	> 100	> 100	> 100	> 100	> 100	> 100	> 100	> 100	> 100
Cc1ccc(S(=O)(=O)NC(=O)NNc2ccc(F)cc2)cc1	> 100	> 100	> 100	> 100	> 100	> 100	> 100	> 100	> 100	> 100
C=C1C(=O)OC2/C=C(/C)C3(O)OC(C)(CC(OC(=O)C(C)C)C12)CC3OC(C)=O (stereo not given)	> 100	65.9	> 100	6.82	36.5	22	26.1	18.1	68	56.5
Cc1cc2nc(-c3cc(C(C)(C)C)c(O)c(C(C)(C)C)c3)[nH]c2cc1C	> 52.8	> 100	> 100	> 100	> 100	> 100	> 100	> 100	> 100	> 100
COC(=O)c1cc2c(cc1CC(Cc1ccc3c(c1)CCC3)C(=O)OC)CCC2 (stereo not given)	> 100	> 100	> 100	65.3	> 100	> 100	> 100	> 100	81.3	> 100
COc1c(O)c(O)cc2c1-c1ccc(OC)c(=O)cc1C(NC(C)=O)CC2 (stereo not given)	62.2	80.6	> 100	> 41.2	> 100	16	32.9	9.07	76.9	20.5
CC(C)(C)c1ccc(OCC(=O)O)c(Cl)c1	> 100	> 100	> 100	> 100	> 100	> 100	> 100	> 100	> 100	> 100
